Results from patent US20210355235A1, “Compositions and Methods For Treating Cancer with Anti-Renalase antibodies and Anti-PD1 antibodies” (YALE UNIVERSITY, priority 2017, published 2021).

Legend:
renal ischemia = renal ischemia and reperfusion in WT mice; type: in vivo, mouse; conditions: 30 minutes of renal ischemia and reperfusion
Experimental: FIG. 3 is a chart showing that ERK or AKT inhibition abrogates protective effect of renalase peptide: WT mice subjected to sham surgery or to 30 minutes of renal ischemia and reperfusion; RP-[…] or vehicle (saline) injected 10 minutes before renal ischemia. ERK inhibitor PD98059 or the PI3K/AKT inhibitor wortmannin abrogated RP-[…]'s protective effect.

MiaPaCa2 cells = conditions: pretreatment before rRNLS 30 μg/ml

| Compound | effect on RP-H220's protective effect (renal ischemia) | effect on rRNLS' protective effect (MiaPaCa2 cells) |
| --- | --- | --- |
| COc1cccc(-c2cc(=O)c3ccccc3o2)c1N [PD98059] | abrogated |  |
| N#CC(=C(/N)Sc1ccccc1N)/C(C#N)=C(\N)Sc1ccccc1N [U0126] |  | abrogated |
